# Where two headings read alike, the source gives them in different places.
# Experiments:
# [1] = 1100 mg per kilogram feed, first day of life till day 39
# Source text: 396 days old ROSS® 308 meat chickens were used for this test. The test lasted from the first day of life of the chickens till day 39. […] The uncertainty of the measurement value is lower than 0.05.
# (§1) The design of the test was for the rest similar to the one described above.
# [2] = test system: villi; details: 1100 mg per kilogram feed; for average length of the villi: 5 chickens
# Procedure: 20 days old ROSS® 308 meat chickens were used for this test. The test lasted from the first day of life of the chickens till day 39. […] The average length of the villi of 5 chickens was measured for each group after 14 days. […] The average length of the villi of 5 chickens was measured for each group after 39 days. […] The uncertainty of the measurement value is lower than 0.05.
# as §1
# [3] = test system: CD3+ T-cells
# Procedure: 20 days old ROSS® 308 meat chickens were used for this test. The test lasted from the first day of life of the chickens till day 14. […] On day 14, the average amount of CD3+ T-cells was determined for both groups.
# [4] = test system: coccidiose; assay: Influence on Coccidiose infection (chickens in a shed infected with coccidiose); details: 1100 mg per kilogram feed, till day 39
# Source text: 496 days old ROSS® 308 meat chickens were used for this test and were placed in a shed that was infected with coccidiose. The test lasted from the first day of life of the chickens till day 39. […] The uncertainty of the measurement value is lower than 0.05.
SMILES,decrease of the FCR value with respect to the control group [1],increase of the length of the villi compared to the control group ([2]; after 39 days),"change of the surface percentage for CD3+ compared to the control group (in words) ([3]; similar design, added to the feed)",FCR value ([1]; test group),increase of the length of the villi compared to the control group ([2]; after 14 days),average length of the villi ([2]; after 14 days),average length of the villi ([2]; after 39 days),"increase of the surface percentage for CD3+ versus control group ([3]; day 14, 1100 mg per kilogram feed)","surface percentage for CD3+ ([3]; day 14, test group, 1100 mg per kilogram feed)","animals that died, supplemented group versus control [4]",decrease of the FCR value versus control group [4],FCR value ([4]; test group)
"CCCC(=O)OCC[N+](C)(C)C [butyrylcholine, (N,N,N-trimethyl)-2-ammoniumethylbutanoate]",5%,21%,increase,–,–,–,–,–,–,–,–,–
CCCC(=O)[O-].C[N+](C)(C)CCO [choline butyrate],5%,21%,–,1.57,7%,779 μm,1231 μm,27%,23 surface percentage,more animals died,13%,2.22

# Source: US11642322B2, “Food supplement and composition comprising choline butyrate salt and/or butyrylcholine” (A[…], priority 2016, dated 2023)
